Where two headings read alike, the source gives them in different places.
Legend:
SARS-CoV-2 [1] = experiment: Simultaneous Stellaris FISH and immunofluorescence: viral +strand gRNA and nucleocapsid protein (Np); type: cell-based; conditions: for restoration of viral gRNA levels in MTX-treated cells: 10011M thymidine or 1 mM formate added to 1 μM MTX; for restoration of viral gRNA levels in MTX-treated cells / rescue of translation of viral Np in MTX-treated cells: 48 hours; for rescue of translation of viral Np in MTX-treated cells: thymidine or 1 mM formate added to 1 μM MTX
[2] = system: SARS-CoV-2 infected Vero E6 TMPRSS2+ cells; experiment: Live cell number (cytopathic effect) quantification assay, Viral Tox-Glo; type: cell-based, African Green Monkey; conditions: for rescue of CPE in MTX-treated cells: thymidine or 1 mM formate added to 1 μM MTX, 48 hours
SARS-CoV-2 [3] = type: cell-based; conditions: for rescue of virion production in MTX-treated cells: thymidine or 1 mM formate added to 1 μM MTX, 48 hours
RNA flavivirus Zika = conditions: cited from earlier work

SMILES: CCCCS(=N)(=O)CCC(N)C(=O)O [BSO, L-buthionine-sulfoximine]
- Np levels (SARS-CoV-2 [1]): did not have any apparent effect
- viral gRNA levels (SARS-CoV-2 [1]): did not have any apparent effect

SMILES: O=C(COc1ccc(Cl)cc1)NC1CCC(NC(=O)COc2ccc(Cl)cc2)CC1 (centres unmarked) [ISRIB]
- Np expression (SARS-CoV-2 [1]): did not appreciably diminish
- viral gRNA expression (SARS-CoV-2 [1]): did not appreciably diminish
- number of live cells [2]: increased the number of live cells

SMILES: C/C=C(\C)[C@H](O)[C@H](C)/C=C(C)/C=C/C/C(C)=C/Cc1nc(OC)c(OC)c(O)c1C [Piericidin A]
- secreted virus levels (SARS-CoV-2 [3]): did not have a major impact
- secreted virus levels (SARS-CoV-2 [3]; listed as PierA): did not reduce viral replication
- Np levels (SARS-CoV-2 [1]): did not have a major impact
- viral gRNA levels (SARS-CoV-2 [1]): did not have a major impact
- viral CPE [2]: reduced viral CPE

SMILES: Cc1n[nH]c2c1C(c1cc(CO)cc(-c3ccccc3)c1)(C(C)C)C(C#N)=C(N)O2 (centres unmarked) [SHIN1]
- reduction of infectious virus titer (SARS-CoV-2 [3]): ~1 log
- +strand gRNA levels (SARS-CoV-2 [1]): diminished
- nucleoprotein levels (SARS-CoV-2 [1]): diminished
- viral CPE [2]: induced resistance to viral CPE

SMILES: O=C[O-].[Na+] [formate, sodium formate]
- reversal of SHIN1 effects (virus titer, gRNA, nucleoprotein, CPE) (SARS-CoV-2 [3]; 1 mM formate added to 10 μM SHIN1, 48 hours): fully reversed
- rescue of virion production in MTX-treated cells (SARS-CoV-2 [3]): unable to rescue
- restoration of viral gRNA levels in MTX-treated cells (SARS-CoV-2 [1]): could only partially restore
- rescue of translation of viral Np in MTX-treated cells (SARS-CoV-2 [1]): unable to rescue
- rescue of CPE in MTX-treated cells [2]: unable to rescue

SMILES: O=c1[nH]cnc2nc[nH]c12 [hypoxanthine]
- reversal of all effects of MTX (CPE, gRNA, Np, infectious virion) (SARS-CoV-2 [3]): could be reversed

SMILES: CN(Cc1cnc2nc(N)nc(N)c2n1)c1ccc(C(=O)N[C@@H](CCC(=O)O)C(=O)O)cc1 [methotrexate]
- diminished secretion of infectious virion (SARS-CoV-2 [3]): ~2 log
- Np levels (SARS-CoV-2 [1]): reduced
- viral gRNA levels (SARS-CoV-2 [1]): reduced
- virus-induced CPE [2]: significantly blocked virus-induced CPE
- replication of the RNA flavivirus Zika (RNA flavivirus Zika): impair replication

SMILES: Cc1cn([C@H]2C[C@H](O)[C@@H](CO)O2)c(=O)[nH]c1=O [thymidine]
- rescue of virion production in MTX-treated cells (SARS-CoV-2 [3]): unable to rescue
- restoration of viral gRNA levels in MTX-treated cells (SARS-CoV-2 [1]): could only partially restore
- rescue of translation of viral Np in MTX-treated cells (SARS-CoV-2 [1]): unable to rescue
- rescue of CPE in MTX-treated cells [2]: unable to rescue
